According to US7018839B2 (priority 1996, dated 2006):
No end group written: not given here.

What was measured:
[1] = tested on: hippocampal cells in organotypic cultures; assay: Organotypic hippocampal tissue culture toxicity (trypan blue, LDH, AChE immunocytochemistry); format: cell-based, rats; conditions: for cellular damage in hippocampal sections compared to control samples: semi-acute application for 1 hour, AChE-peptide and/or NMDA
Method: The organotype tissue culture technique requires postnatal (day 5–7) rats given terminal anaesthesia followed by decapitation. Sections of hippocampus, 400 μm thick, are prepared and then plated on a plasma/thrombin clot. A serum-based media is added to these cultures, which can then be maintained at constant temperature (35° C.) for up to 21 days. After each study, cultures are stained with trypan blue to assess cell viability, in addition, after every removal of serum media, cultures are assayed for lactate dehydrogenase (LDH—a soluble cytoplasmic enzyme used as an index of cellular damage).
Following chronic studies (cultures are maintained for 21 days and treated with AChE-peptide and/or NMDA every 3–4 days), cultured cells are immunocytochemically stained for acetylcholinesterase in order to assess what action, if any, the AChE-peptide has on cell number.

[2] = tested on: neurons in the substantia nigra
[3] = tested on: anti-peptide antibody; assay: Competition assay for binding of antibody to immobilised AChE-peptide; design: species or system Rabbits; conditions: competitor preincubated with antibody in solution; APP and BuChE peptide at even excessive doses
Method: In order to be sure that the antibody recognition of peptides occurs without the possible distortion due to the binding of the peptide to a charged plastic surface, an assay was used in which the critical interaction is studied in solution. […] An aliquot of the antibody was preincubated with potential competitors for binding to the AChE-peptide before presenting the resulting mixture to the peptide bound to the well.

[4] = tested on: substantia nigra; assay: Behavioural studies: infusion into one substantia nigra, amphetamine challenge, circling; format: in vivo, rats; conditions: infused unilaterally into the substantia nigra
Method: In these experiments, rats were chronically implanted with a cannula in one substantia nigra and left to recover. After a period of about 3 days, they were infused with either a saline control solution, or a solution containing the 14-mer AChE peptide of the invention at a dose of 1 μl of 10^−5M. After a single infusion, they were challenged daily with a systemic application of amphetamine for the subsequent 10 days.

## CN[C@H](CC(=O)O)C(=O)O [NMDA, N-methyl-D-aspartate, reference compound]
[1]
  cellular damage in hippocampal sections compared to control samples: extensive cellular damage

## AEFHRWSSYMVHWK [AChE peptide]
[1]; chronic cultures, 21 days, treated every 3–4 days
  LDH assays (biochemical studies): support the proposed toxic action
[1]; culture period of three weeks
  toxicity detected histochemically: Toxic effects are also detectable
[1]; organotypic cultures
  interaction with excito-toxic effects of NMDA: synergistic
  time of application until effect can be seen: one
  toxic effects on hippocampal cells: direct toxic effects
[1]
  cellular damage in hippocampal sections compared to control samples: extensive cellular damage
[2]
  state of the cell on application of NMDA after peptide treatment: severe metabolic stress of the cell

## AGFHRWNNYMMDWK [BuChE peptide]
[3]
  competition for the binding of antibody to immobilised AChE-peptide: could not compete
[2]
  calcium channel opening activity: inactive
  effect of the fragment alone on calcium potentials: without corresponding effect
  effect on the activity of the AChE fragment: inactive

## acetylcholinesterase [AChE]
[4]
  circling behaviour (activity of the nigrostriatal pathway): long-term increase in circling behaviour

## recombinant AChE
[3]
  competition for the binding of antibody to immobilised AChE-peptide: effective competitor
